# Test results: patent US10800755B2, “2,6-disubstituted pyridine derivative” (Sumitomo Dainippon Pharma Co., Ltd., priority 2017, dated 2020)
# Assays:
# [1] = biological target: T1, human 5-HT1A receptor (Homo sapiens (Human), UniProt P08908); experiment: Test 2: binding activity to human 5-HT1A receptor ([3H] 8-OH-DPAT, CHO cell membrane); conditions: [3H] 8-OH-DPAT; read-out: 5-HT1A binding affinity (Ki value)
# [2] = test system: ICR male mouse; experiment: Test 7: marble-burying behavior test; format: in vivo
# Experimental: Test 7: Marble-Burying Behavior Test
# The effect of the present compound for obsessive-compulsive disorder-like behavior was evaluated in a manner mentioned below.
# 450-500 g of paper floorcloth was beded in a plastic cage (floor area: 778 cm^2), and 20 glass marbles were set on the paper floorcloth at regular intervals. To a 5-week-old ICR male mouse, the present compound was intraperitoneally administered with saline solution. 15 minutes after the administration, the mouse was made to softly enter the corner of the cage and move freely in the cage for 15 minutes. Then the mouse was taken out from the cage. The number of the marbles that were buried in the floorcloth was counted. The numbers in the solvent-administration group and the present compound-administration group were compared to be statistically processed.
# [3] = biological target: T1, human 5-HT1A receptor; experiment: Test 1: agonistic activity for human 5-HT1A receptor (aequorin/Gα16 luminescence in CHO-K1 cell); format: cell-based
# Procedure, shortened: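 Aequorin and Gα16 transiently co-expressed with each receptor in CHO-K1 cells, cultured 24 h at 37 °C. Compounds added from DMSO solution; agonism read as change in luminescence.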
# [4] = Test 3-2: metabolic stability test of human liver microsome (0.5 or 1.0 mg/mL); format: in vitro ADME; conditions: test compound 0.1 μmol/L, 37° C., 30 minutes
# Experimental: Test 3-2: Metabolic Stability Test of Human Liver Microsome
# In order to evaluate the metabolic stability of human liver microsomes more precisely, the stability of the present compounds for human liver microsome metabolism was evaluated with a suitable concentration of human liver microsome, as mentioned below. The used human liver microsome was obtained from Xenontech. Human liver microsome, NADPH, and each test compound were mixed in 25 mmol/L phosphate buffer solution (pH 7.4) to adjust each concentration as shown below, and the mixture was incubated at 37° C. for 30 minutes. • human liver microsome: 0.5 or 1.0 mg/mL • NAPDH: 3.2 mmol/L • test compound: 0.1 μmol/L
# The residual ratio of the test compound in each sample after the incubation for 30 minutes was measured with a LC-MS, and the metabolic stability of human liver microsome was calculated about each test compound with the following formula. Metabolic stability of human liver microsome (mL/min/mg protein)=−LN (residual ratio)/“reaction time”/“concentration of human liver microsome”
# [5] = biological target: hERG channel (Homo sapiens (Human), UniProt Q12809); experiment: Test 5-1: activity for inhibiting hERG channel (whole-cell patch clamp, hERG-CHO cell, Qpatch); format: cell-based; conditions: read-out: hERG inhibition IC50
# Sequence of hERG channel (Q12809 whole entry): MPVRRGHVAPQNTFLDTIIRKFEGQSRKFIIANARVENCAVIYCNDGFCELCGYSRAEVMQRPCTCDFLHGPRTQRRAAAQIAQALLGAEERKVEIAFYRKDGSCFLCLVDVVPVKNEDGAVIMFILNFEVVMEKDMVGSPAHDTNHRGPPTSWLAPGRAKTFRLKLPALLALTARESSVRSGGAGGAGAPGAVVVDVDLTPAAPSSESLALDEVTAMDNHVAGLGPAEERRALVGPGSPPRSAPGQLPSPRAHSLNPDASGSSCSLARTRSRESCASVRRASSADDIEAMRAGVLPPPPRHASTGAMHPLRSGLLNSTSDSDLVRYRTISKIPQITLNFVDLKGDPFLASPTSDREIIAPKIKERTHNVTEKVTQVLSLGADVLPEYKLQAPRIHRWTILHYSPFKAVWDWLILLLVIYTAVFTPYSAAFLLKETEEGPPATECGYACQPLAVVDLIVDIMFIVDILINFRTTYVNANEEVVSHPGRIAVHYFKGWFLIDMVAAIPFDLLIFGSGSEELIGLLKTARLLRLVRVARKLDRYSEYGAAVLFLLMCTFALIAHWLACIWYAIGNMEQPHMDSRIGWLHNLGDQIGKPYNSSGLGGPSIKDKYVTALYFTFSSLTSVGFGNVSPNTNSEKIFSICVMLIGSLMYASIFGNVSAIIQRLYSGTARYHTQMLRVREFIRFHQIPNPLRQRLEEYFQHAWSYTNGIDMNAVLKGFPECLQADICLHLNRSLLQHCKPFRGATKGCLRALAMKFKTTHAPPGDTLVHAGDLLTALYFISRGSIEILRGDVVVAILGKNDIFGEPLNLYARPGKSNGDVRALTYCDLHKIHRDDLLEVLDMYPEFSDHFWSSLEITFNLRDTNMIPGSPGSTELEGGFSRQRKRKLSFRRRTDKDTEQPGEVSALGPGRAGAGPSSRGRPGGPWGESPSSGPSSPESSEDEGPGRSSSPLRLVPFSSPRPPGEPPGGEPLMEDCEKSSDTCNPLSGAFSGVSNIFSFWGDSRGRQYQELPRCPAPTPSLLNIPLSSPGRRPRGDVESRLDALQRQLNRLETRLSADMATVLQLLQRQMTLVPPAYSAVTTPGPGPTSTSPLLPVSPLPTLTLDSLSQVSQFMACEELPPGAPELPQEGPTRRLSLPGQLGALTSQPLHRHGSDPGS
# Experimental: Test 5-1: Evaluation of Activity for Inhibiting hERG Channel
# The activity of the present compound for inhibiting hERG channel was measured by whole-cell patch clamp method with auto patch clamp system, using CHO cell wherein hERG channel involved in human rapidly activating delayed rectifier potassium current (IKr) was forcibly expressed.
# hERG-CHO cell purchased from ChanTest was incubated at 37° C. in a CO2 incubator, and the cell was exfoliated from the flask with trypsin to prepare a cell suspension, shortly before the hERG current measurement.
# Extracellular fluid: 2 mmol/L CaCl2, 1 mmol/L MgCl2, 10 mmol/L HEPES, 4 mmol/L KCl, 145 mmol/L NaCl, 10 mmol/L glucose
# Intracellular fluid: 5.4 mmol/L CaCl2, 1.8 mmol/L MgCl2, 10 mmol/L HEPES, 31 mmol/L KOH, 10 mmol/L EGTA, 120 mmol/L KCl, 4 mmol/L Na2-ATP
# Test compound solution: The test compound was dissolved in DMSO by adjusting the concentration to 2 mmol/L or 20 mmol/L to prepare each test compound solution. […] (Measurement of Current Value and Data Analysis)
# The cell suspension, the extracellular fluid, the intracellular fluid, and the measurement plate were set in an auto patch clamp system, and the hERG current was measured by whole-cell patch clamp method. […] Each pulse interval was 15 seconds. The data analysis was carried out with Qpatch Assay Software (Biolin Scientific). The test was carried out applying increscently 4 concentrations of each test compound, and the average of the peak tail currents that were obtained by the last 3 stimulations in each applied concentration was determined to be the evaluated data. By using the current inhibition rate for the pre-applied current at each concentration of each test compound, IC50 value was calculated by Hill equation with the software.
# [6] = biological target: human D4 receptor (Homo sapiens (Human), UniProt P21917); experiment: Test 1: agonistic activity for human D4 receptor (aequorin/Gα16 luminescence in CHO-K1 cell); format: cell-based
# Sequence of human D4 receptor (P21917 whole entry): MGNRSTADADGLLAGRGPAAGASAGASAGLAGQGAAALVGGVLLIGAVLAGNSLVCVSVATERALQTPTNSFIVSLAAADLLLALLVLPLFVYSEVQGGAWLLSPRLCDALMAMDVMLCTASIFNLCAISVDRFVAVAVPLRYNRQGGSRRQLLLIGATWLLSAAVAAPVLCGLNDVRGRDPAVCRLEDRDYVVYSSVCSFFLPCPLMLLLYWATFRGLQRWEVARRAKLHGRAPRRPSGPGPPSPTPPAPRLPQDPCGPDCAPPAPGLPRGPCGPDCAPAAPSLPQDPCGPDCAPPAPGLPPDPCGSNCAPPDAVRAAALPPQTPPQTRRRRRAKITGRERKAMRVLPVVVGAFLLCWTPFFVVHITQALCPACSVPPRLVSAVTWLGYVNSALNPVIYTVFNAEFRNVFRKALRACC
# [7] = Test 3-1: metabolic stability test of human liver microsome (0.1 mg/mL); format: in vitro ADME; conditions: test compound 0.1 μmol/L, 37° C., 30 minutes
# Procedure, shortened: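 Compound at 0.1 μmol/L incubated 30 min at 37 °C with human liver microsomes (0.1 mg/mL) and NADPH (3.2 mmol/L) in 25 mmol/L phosphate buffer, pH 7.4. Remaining parent measured by LC-MS; stability given as −ln(residual ratio)/time/microsome concentration (mL/min/mg protein).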
# [8] = CHO-K1, 100% = 10 μmol/L endogenous ligand
# [9] = CHO-K1 cell, aequorin luminescence
# T1 sequence (P08908 whole entry): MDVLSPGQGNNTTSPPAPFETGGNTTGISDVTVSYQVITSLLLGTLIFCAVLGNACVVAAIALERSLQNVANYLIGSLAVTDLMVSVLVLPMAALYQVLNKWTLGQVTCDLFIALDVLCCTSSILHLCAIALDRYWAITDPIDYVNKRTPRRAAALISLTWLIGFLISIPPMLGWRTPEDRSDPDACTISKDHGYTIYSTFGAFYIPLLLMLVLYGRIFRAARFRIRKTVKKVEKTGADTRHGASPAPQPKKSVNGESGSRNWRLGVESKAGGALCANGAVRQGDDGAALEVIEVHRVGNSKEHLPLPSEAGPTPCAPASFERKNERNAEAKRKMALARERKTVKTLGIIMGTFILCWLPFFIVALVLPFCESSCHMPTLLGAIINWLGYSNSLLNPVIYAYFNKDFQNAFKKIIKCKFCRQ
smiles,measurement,setting,value
"O=C(NCCN1CCC(c2cccc(C(F)(F)F)n2)CC1)C1CCC(F)(F)CC1 [Example 1, 4,4-Difluoro-N-(2-{4-[6-(trifluoromethyl)pyridin-2-yl]piperidin-1-yl}ethyl)cyclohexane-carboxamide]",Ki,[1],0.4 nM
same,enhancement effect of decreasing the number of the buried marbles compared with single administration of escitalopram,"[2]; combination with escitalopram, 0.3 mg/kg administration",43.8%
same,decrease of the buried marbles for the solvent-administration group,"[2]; intraperitoneal, 0.5 mg/kg administration",44.8%
same,Emax,[3]; [8],96%
same,EC50,[3]; [9],< 10 nM
same,Metabolic stability of human liver microsome,[4],0.031 mL/min/mg protein
same,IC50,[5],2500 nM
same,Emax,[6]; [8],67%
same,EC50,[6]; [9],11.9 nM
same,Metabolic stability of human liver microsome,[7],0.073 mL/min/mg protein
